For the assay, the target named is wild type c-kit (Homo sapiens (Human), UniProt P10721). Kind of assay: PathScan phospho c-kit (Tyr719) sandwich ELISA in SCF-stimulated M-07e cells (pKIT assay). In kind it is cell-based. The note with it: ELISA assay (values not marked *). The procedure, abridged: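 Serum- and GM-CSF-starved M-07e cells (4 h) pretreated 60 min at 37 °C with an 8-point compound series in duplicate (0.25% DMSO), then stimulated with human SCF (500 ng/mL stock) 10 min at room temperature. Lysate c-kit Tyr719 phosphorylation quantified by sandwich ELISA with TMB read-out; IC50 from 4-parameter logistic fit.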
On the technique in general: ELISA stands for enzyme-linked immunosorbent assay.

Molecules are shown by their SMILES.

wild type c-kit, sequence (P10721 26-976): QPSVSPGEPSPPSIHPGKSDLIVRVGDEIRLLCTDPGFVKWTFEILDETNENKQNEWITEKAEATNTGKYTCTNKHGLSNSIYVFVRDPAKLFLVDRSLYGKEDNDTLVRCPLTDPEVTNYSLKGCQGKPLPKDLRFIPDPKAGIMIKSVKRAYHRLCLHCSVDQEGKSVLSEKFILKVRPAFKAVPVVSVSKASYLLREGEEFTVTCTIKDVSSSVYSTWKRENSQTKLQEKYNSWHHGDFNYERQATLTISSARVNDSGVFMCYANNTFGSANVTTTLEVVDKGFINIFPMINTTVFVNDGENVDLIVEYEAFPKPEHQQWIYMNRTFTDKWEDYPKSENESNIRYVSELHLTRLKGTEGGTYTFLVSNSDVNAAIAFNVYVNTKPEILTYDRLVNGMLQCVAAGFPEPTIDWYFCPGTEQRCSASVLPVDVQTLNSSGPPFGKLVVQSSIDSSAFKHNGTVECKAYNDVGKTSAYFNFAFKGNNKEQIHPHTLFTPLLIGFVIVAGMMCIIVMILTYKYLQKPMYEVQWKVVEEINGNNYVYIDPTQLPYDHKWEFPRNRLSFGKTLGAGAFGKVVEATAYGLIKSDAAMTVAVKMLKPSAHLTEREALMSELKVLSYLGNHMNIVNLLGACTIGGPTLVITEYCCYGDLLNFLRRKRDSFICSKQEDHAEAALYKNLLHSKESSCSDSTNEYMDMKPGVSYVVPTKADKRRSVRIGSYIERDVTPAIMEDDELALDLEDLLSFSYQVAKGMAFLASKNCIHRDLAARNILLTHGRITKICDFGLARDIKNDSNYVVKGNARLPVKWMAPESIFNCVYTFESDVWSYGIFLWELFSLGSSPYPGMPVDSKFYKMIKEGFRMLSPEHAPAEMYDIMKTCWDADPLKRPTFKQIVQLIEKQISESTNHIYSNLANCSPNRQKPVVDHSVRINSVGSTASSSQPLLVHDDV

On to `COCCNc1ccn2ncc(C(=O)Nc3cc(-c4nnn(C[C@@H]5CC5(F)F)n4)ccc3C)c2c1` (single isomer, unassigned) [Example 123, (S)-N-(5-(2-((2,2-difluorocyclopropyl)methyl)-2H-tetrazol-5-yl)-2-methylphenyl)-5-((2-methoxyethyl)amino)pyrazolo[1,5-a]pyridine-3-carboxamide or (R)-N-(5-(2-((2,2-difluorocyclopropyl)methyl)-2H-tetrazol-5-yl)-2-methylphenyl)-5-((2-methoxyethyl)amino)pyrazolo[1,5-a]pyridine-3-carboxamide], for which the midpoint of inhibition, the IC50, lay at 3.4 nM.
With `COC[C@@H](O)Cn1ncc(-c2ccn3ncc(C(=O)Nc4cc(-c5nnn(C6CC6)n5)c(C)cc4Cl)c3c2)c1C` [Example 262, (S)-N-(2-chloro-5-(2-cyclopropyl-2H-tetrazol-5-yl)-4-methylphenyl)-5-(1-(2-hydroxy-3-methoxypropyl)-5-methyl-1H-pyrazol-4-yl)pyrazolo[1,5-a]pyridine-3-carboxamide] the figure was 1.1 nM; with `Cc1ccc(-c2nnn(C3CN(S(=O)(=O)C4CCOC4)C3)n2)cc1NC(=O)c1cnn2ccccc12` (centres unmarked) [Example 175, N-(2-methyl-5-(2-(1-((tetrahydrofuran-3-yl)sulfonyl)azetidin-3-yl)-2H-tetrazol-5-yl)phenyl)pyrazolo[1,5-a]pyridine-3-carboxamide], 77.8 nM.
`COC(=O)N1CC(n2nnc(-c3ccc(C)c(NC(=O)c4cnn5ccc(N6CCN(C7COC7)CC6)cc45)c3)n2)C1` [Example 74, methyl 3-(5-(4-methyl-3-(5-(4-(oxetan-3-yl)piperazin-1-yl)pyrazolo[1,5-a]pyridine-3-carboxamido)phenyl)-2H-tetrazol-2-yl)azetidine-1-carboxylate] yielded a half-maximal inhibitory concentration (IC50) of 63.9 nM.
Compound `Cc1nn(C[C@@H](C)O)cc1-c1ccn2ncc(C(=O)Nc3cc(-c4nnn(C5CC5)n4)c(F)cc3Cl)c2c1` [Example 281, (R)—N-(2-chloro-5-(2-cyclopropyl-2H-tetrazol-5-yl)-4-fluorophenyl)-5-(1-(2-hydroxypropyl)-3-methyl-1H-pyrazol-4-yl)pyrazolo[1,5-a]pyridine-3-carboxamide] yielded an IC50 of 0.4 nM.
Next, `CNc1ccn2ncc(C(=O)Nc3cc(-n4ncc(C5CN(C(=O)OC)C5)n4)ccc3C)c2c1` [Example 138, methyl 3-(2-(4-methyl-3-(5-(methylamino)pyrazolo[1,5-a]pyridine-3-carboxamido)phenyl)-2H-1,2,3-triazol-4-yl)azetidine-1-carboxylate]: 13.4 nM; `Cc1cc(F)c(-c2nnn(C3CC3)n2)cc1NC(=O)c1cnn2ccc(-c3cn(C[C@@H](C)O)nc3C)cc12` [Example 255, (R)-N-(5-(2-cyclopropyl-2H-tetrazol-5-yl)-4-fluoro-2-methylphenyl)-5-(1-(2-hydroxypropyl)-3-methyl-1H-pyrazol-4-yl)pyrazolo[1,5-a]pyridine-3-carboxamide]: 0.3 nM.
In turn, `Cc1ccc(-c2nnn(CC3CC3)n2)cc1NC(=O)c1cnn2ccccc12` [Example 7, N-(5-(2-(cyclopropylmethyl)-2H-tetrazol-5-yl)-2-methylphenyl)pyrazolo[1,5-a]pyridine-3-carboxamide] came in with an IC50 of 13.6 nM.
`[2H]C([2H])([2H])c1ccc(-c2nnn(C3CN(C(=O)OC)C3)n2)cc1NC(=O)c1cnn2ccc(NCCOC)cc12` [Example 118, methyl 3-(5-(3-(5-((2-methoxyethyl)amino)pyrazolo[1,5-a]pyridine-3-carboxamido)-4-(methyl-d3)phenyl)-2H-tetrazol-2-yl)azetidine-1-carboxylate] had an IC50 of 22.7 nM.
With `Cc1cc(C)c(-c2nnn(CC3CC3(F)F)n2)cc1NC(=O)c1cnn2ccccc12` (centres unmarked) [Example 21, N-(5-(2-((2,2-difluorocyclopropyl)methyl)-2H-tetrazol-5-yl)-2,4-dimethylphenyl)pyrazolo[1,5-a]pyridine-3-carboxamide] the figure was 6.4 nM; with `Cc1nnn(-c2ccc(Cl)c(NC(=O)c3cnn4ccc(-c5cnn(CC(C)(C)O)c5)cc34)c2)n1` [Example 212, N-(2-chloro-5-(5-methyl-2H-tetrazol-2-yl)phenyl)-5-(1-(2-hydroxy-2-methylpropyl)-1H-pyrazol-4-yl)pyrazolo[1,5-a]pyridine-3-carboxamide], 5.6 nM; with `Cn1nnc(-c2ccc(Cl)c(NC(=O)c3cnn4ccc(-c5cnn(CCO)c5)cc34)c2)n1` [Example 218, N-(2-chloro-5-(2-methyl-2H-tetrazol-5-yl)phenyl)-5-(1-(2-hydroxyethyl)-1H-pyrazol-4-yl)pyrazolo[1,5-a]pyridine-3-carboxamide], 5.2 nM.
Next, `COC(=O)N1CC(n2nnc(-c3ccc(Cl)c(NC(=O)c4cnn5cc(N6CCOCC6)ccc45)c3)n2)C1` [Example 163, methyl 3-(5-(4-chloro-3-(6-morpholinopyrazolo[1,5-a]pyridine-3-carboxamido)phenyl)-2H-tetrazol-2-yl)azetidine-1-carboxylate]: 9.3 nM; `Cc1ccc(-c2nnn(C)n2)cc1NC(=O)c1cnn2ccc(-c3cnn(CCCS(C)(=N)=O)c3)cc12` (centres unmarked) [Example 232, N-(2-methyl-5-(2-methyl-2H-tetrazol-5-yl)phenyl)-5-(1-(3-(S-methylsulfonimidoyl)propyl)-1H-pyrazol-4-yl)pyrazolo[1,5-a]pyridine-3-carboxamide]: 26 nM.

One may read the IC50 as the midpoint of a concentration-inhibition curve.

The values are drawn from US20240262826A1, “WILD TYPE KIT INHIBITORS” (Blueprint Medicines Corporation, priority 2022, published 2024).
